From PubChem BioAssay (NCI)
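All cell lines were grown in 96-well plates and treated with compound for 48 hours. Definition used: TGI = concentration required for complete inhibition of growth.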

Tests used:
Experiment in all cases: inhibition of tumour cell growth, NCI panel, 48 h
[1] = system: M19-MEL melanoma
[2] = system: EKVX NSCLC
[3] = system: SF-295 CNS
[4] = system: UACC-62 melanoma
[5] = system: M14 melanoma
[6] = system: MALME-3M melanoma
[7] = system: RPMI-8226 leukemia
[8] = system: LOX IMVI melanoma
[9] = system: SNB-78 CNS
[10] = system: A498 renal
[11] = system: NCI-H460 lung
[12] = system: UACC-257 melanoma
[13] = system: SR leukemia
[14] = system: OVCAR-5 ovarian
[15] = system: DLD-1 colon
[16] = system: K-562 leukemia
[17] = system: RXF 393 renal
[18] = system: HOP-18 NSCLC
[19] = system: OVCAR-3 ovarian
[20] = system: SK-OV-3 ovarian
[21] = system: HCT-116 colon
[22] = system: 786-0 renal
[23] = system: SNB-75 CNS
[24] = system: SK-MEL-2 melanoma
[25] = system: KM12 colon
[26] = system: NCI-H23 lung
[27] = system: OVCAR-4 ovarian
[28] = system: NCI-H522 lung
[29] = system: IGROV1 ovarian
[30] = system: COLO 205 colon
[31] = system: LXFL 529 NSCLC
[32] = system: A549 NSCLC
[33] = system: HCC-2998 colon
[34] = system: SNB-19 CNS
[35] = system: CCRF-CEM leukemia
[36] = system: SN12C renal
[37] = system: TK-10 renal
[38] = system: NCI-H226 lung
[39] = system: HT29 colon
[40] = system: DMS 114 small cell lung
[41] = system: HCT-15 colon
[42] = system: KM20L2 colon
[43] = system: HOP-62 NSCLC
[44] = system: MOLT-4 leukemia
[45] = system: SK-MEL-5 melanoma
[46] = system: DMS 273 small cell lung
[47] = system: SW-620 colon
[48] = system: U251 CNS
[49] = system: CAKI-1 renal
[50] = system: SF-268 CNS
[51] = system: OVCAR-8 ovarian
[52] = system: ACHN renal
[53] = system: HL-60(TB) leukemia
[54] = system: XF 498 CNS
[55] = system: SF-539 CNS
[56] = system: SK-MEL-28 melanoma
[57] = system: UO-31 renal
[58] = system: HOP-92 NSCLC

For Cc1cc(Br)ccc1NC1=CC(=O)C(=O)c2ccccc21, the TGI [1] was 29.5 µM, the TGI [2] was > 100 µM and the TGI [3] was > 100 µM. For the same molecule, the TGI [4] was 36.1 µM, the TGI [5] was > 100 µM and the TGI [6] was 53 µM. The TGI [7] was > 100 µM, the TGI [8] was 48.5 µM and the TGI [9] was > 100 µM. For the same molecule, the TGI [10] was > 100 µM, the TGI [11] was 78.2 µM and the TGI [12] was 39.4 µM. The TGI [13] was > 100 µM, the TGI [14] was > 100 µM and the TGI [15] was > 100 µM. For the same molecule, the TGI [16] was > 100 µM, the TGI [17] was 69.6 µM and the TGI [18] was 57.1 µM. The TGI [19] was > 100 µM, the TGI [20] was > 100 µM and the TGI [21] was > 100 µM. For the same molecule, the TGI [22] was > 100 µM, the TGI [23] was > 100 µM and the TGI [24] was > 100 µM. For the same molecule, the TGI [25] was > 100 µM, the TGI [26] was 32.4 µM and the TGI [27] was 31.1 µM. For the same molecule, the TGI [28] was > 100 µM, the TGI [29] was > 100 µM and the TGI [30] was > 100 µM. For the same molecule, the TGI [31] was > 100 µM, the TGI [32] was > 100 µM and the TGI [33] was > 100 µM. For the same molecule, the TGI [34] was > 100 µM, the TGI [35] was > 100 µM and the TGI [36] was > 100 µM. The TGI [37] was > 100 µM, the TGI [38] was > 100 µM and the TGI [39] was > 100 µM. The TGI [40] was 45 µM, the TGI [41] was > 100 µM and the TGI [42] was > 100 µM. The TGI [43] was > 100 µM, the TGI [44] was > 100 µM and the TGI [45] was 36.8 µM. The TGI [46] was > 100 µM, the TGI [47] was 89.1 µM and the TGI [48] was > 100 µM. For the same molecule, the TGI [49] was 53.1 µM, the TGI [50] was > 100 µM and the TGI [51] was > 100 µM. The TGI [52] was > 100 µM, the TGI [53] was 38.5 µM and the TGI [54] was 89.1 µM. For the same molecule, the TGI [55] was > 100 µM, the TGI [56] was > 100 µM and the TGI [57] was > 100 µM.

COc1ccc(-c2c3ccccc3c(-c3ccc(OC)cc3)c3ccccc23)cc1 was tested, and the TGI [1] was > 100 µM, the TGI [2] was > 100 µM and the TGI [3] was > 100 µM. For the same molecule, the TGI [4] was > 100 µM, the TGI [5] was > 100 µM and the TGI [6] was > 100 µM. For the same molecule, the TGI [7] was > 100 µM, the TGI [8] was > 100 µM and the TGI [9] was > 100 µM. For the same molecule, the TGI [10] was > 100 µM, the TGI [11] was > 100 µM and the TGI [12] was > 100 µM. For the same molecule, the TGI [13] was > 100 µM, the TGI [14] was > 100 µM and the TGI [15] was > 100 µM. For the same molecule, the TGI [16] was > 100 µM, the TGI [17] was > 100 µM and the TGI [18] was > 100 µM. The TGI [19] was > 100 µM, the TGI [20] was > 100 µM and the TGI [21] was > 100 µM. The TGI [22] was > 100 µM, the TGI [23] was 95.7 µM and the TGI [24] was > 100 µM. For the same molecule, the TGI [25] was > 100 µM, the TGI [26] was > 100 µM and the TGI [27] was > 100 µM. For the same molecule, the TGI [28] was > 100 µM, the TGI [29] was > 100 µM and the TGI [30] was > 100 µM. For the same molecule, the TGI [31] was > 100 µM, the TGI [32] was > 100 µM and the TGI [33] was > 100 µM. The TGI [34] was > 100 µM, the TGI [35] was > 100 µM and the TGI [36] was > 100 µM. The TGI [37] was > 100 µM, the TGI [38] was > 100 µM and the TGI [39] was > 100 µM. For the same molecule, the TGI [40] was > 100 µM, the TGI [41] was > 100 µM and the TGI [42] was > 100 µM. The TGI [43] was > 100 µM, the TGI [44] was > 100 µM and the TGI [58] was > 100 µM. The TGI [45] was > 100 µM, the TGI [46] was > 100 µM and the TGI [47] was > 100 µM. The TGI [48] was > 100 µM, the TGI [49] was > 100 µM and the TGI [50] was > 100 µM. For the same molecule, the TGI [51] was > 100 µM, the TGI [52] was > 100 µM and the TGI [53] was > 100 µM. For the same molecule, the TGI [54] was > 100 µM, the TGI [55] was > 100 µM and the TGI [56] was > 100 µM. The TGI [57] was > 100 µM.
